Reference: publication PMC2728345 (Toxicology and applied pharmacology, 2009)
Positions count from the first letter of the chain named. “Also recorded” adds a separate entry of the source.

Legend:
carboxylesterase HCE2 = carboxylesterase HCE2 (Homo sapiens, UniProt O00748); experiment: Hydrolysis of pyrethroids by recombinant HCE2; assay type: in vitro ADME; settings: for preference for hydrolysis by HCE2 over HCE1: recombinant HCE2 vs HCE1 lysates, Tris-HCl pH 7.4
rat PXR = target: T1, rat PXR (Rattus norvegicus, UniProt Q9R1A7); experiment: Activation of rat PXR, cotransfection with CYP3A4-DP-Luc in HepG2; settings: 24 h
T1 sequence (Q9R1A7 1-431): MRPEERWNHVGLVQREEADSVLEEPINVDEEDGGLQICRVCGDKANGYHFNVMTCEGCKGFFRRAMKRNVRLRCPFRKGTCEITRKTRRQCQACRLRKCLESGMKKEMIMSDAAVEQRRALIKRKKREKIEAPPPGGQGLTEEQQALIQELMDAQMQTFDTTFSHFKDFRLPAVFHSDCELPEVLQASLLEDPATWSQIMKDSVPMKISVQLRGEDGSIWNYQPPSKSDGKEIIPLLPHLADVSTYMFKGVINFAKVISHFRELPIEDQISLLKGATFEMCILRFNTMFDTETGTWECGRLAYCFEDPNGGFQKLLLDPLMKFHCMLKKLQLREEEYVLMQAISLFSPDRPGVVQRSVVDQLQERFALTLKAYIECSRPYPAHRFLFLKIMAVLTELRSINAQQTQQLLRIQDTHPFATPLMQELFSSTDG

CYP3A4 [1] = experiment: CYP3A4 expression in human primary hepatocytes; settings: 10 µM, 24 h; for induction of CYP3A4 mRNA: four donors
[2] = assay type: in vitro ADME, human; settings: ten individual microsomal samples, 100 µM bioallethrin, 30 min
[3] = for hydrolysis by pooled human liver microsomes (rate group / extent, in words): 50 µg protein, pyrethroid 200 µM mixed with equal volume, Tris-HCl pH 7.4, 37°C
CYP3A4 [4] = experiment: Metabolism of pyrethroids by recombinant CYP3A4; settings: Supersomes 5 pmol P450, pyrethroid 50 µM, NRS, 37°C
carboxylesterase HCE1 = target: T2, carboxylesterase HCE1 (Homo sapiens, UniProt P23141); experiment: Hydrolysis of pyrethroids by recombinant HCE1; assay type: in vitro ADME; settings: for preference for hydrolysis by HCE1 over HCE2 (words): recombinant HCE1 vs HCE2 lysates, Tris-HCl pH 7.4
T2 sequence (P23141 18-567): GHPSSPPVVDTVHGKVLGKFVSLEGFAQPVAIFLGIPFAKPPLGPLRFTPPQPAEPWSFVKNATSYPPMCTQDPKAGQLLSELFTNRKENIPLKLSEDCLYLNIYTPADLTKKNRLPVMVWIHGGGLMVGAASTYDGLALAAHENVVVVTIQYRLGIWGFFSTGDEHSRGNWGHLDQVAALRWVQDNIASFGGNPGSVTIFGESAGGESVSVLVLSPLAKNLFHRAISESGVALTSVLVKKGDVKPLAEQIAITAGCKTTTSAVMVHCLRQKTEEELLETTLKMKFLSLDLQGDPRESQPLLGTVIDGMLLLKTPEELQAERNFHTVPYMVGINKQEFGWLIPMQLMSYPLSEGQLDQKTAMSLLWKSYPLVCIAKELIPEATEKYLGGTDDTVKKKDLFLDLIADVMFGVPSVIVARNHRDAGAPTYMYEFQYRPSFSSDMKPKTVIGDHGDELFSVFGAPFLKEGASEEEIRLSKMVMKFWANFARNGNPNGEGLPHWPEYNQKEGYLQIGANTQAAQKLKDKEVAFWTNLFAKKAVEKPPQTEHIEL

human PXR [5] = target: T3, human PXR (Homo sapiens, UniProt O75469); experiment: Activation of human PXR in stable line hPXR-HRE; settings: 10 µM, 24 h, ratio over DMSO
T3 sequence (O75469 1-434): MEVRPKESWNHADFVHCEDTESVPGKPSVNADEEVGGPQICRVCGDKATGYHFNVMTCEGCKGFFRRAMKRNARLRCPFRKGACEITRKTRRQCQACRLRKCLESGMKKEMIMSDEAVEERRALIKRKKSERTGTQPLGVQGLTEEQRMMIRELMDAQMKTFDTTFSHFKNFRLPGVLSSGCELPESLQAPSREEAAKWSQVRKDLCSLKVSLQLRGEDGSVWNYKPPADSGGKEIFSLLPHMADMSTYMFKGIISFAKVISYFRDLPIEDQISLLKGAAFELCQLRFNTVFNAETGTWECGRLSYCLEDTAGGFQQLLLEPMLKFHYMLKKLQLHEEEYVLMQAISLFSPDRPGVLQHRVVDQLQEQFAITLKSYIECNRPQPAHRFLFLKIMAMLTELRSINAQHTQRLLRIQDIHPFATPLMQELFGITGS

rats or mice = settings: in vivo, po; cited from earlier work
human PXR variant S208F = target: T4, human PXR variant S208F (Homo sapiens, UniProt O75469, S208F); settings: HepG2 cotransfection, 10 µM, 24 h; words: compared with wild-type PXR
T4 sequence (O75469 1-434 S208F): T3 sequence (O75469 1-434) with S208F

human PXR variant L412I = target: T5, human PXR variant L412I (Homo sapiens, UniProt O75469, L412I); settings: HepG2 cotransfection, 10 µM, 24 h
T5 sequence (O75469 1-434 L412I): T3 sequence (O75469 1-434) with L412I

CYP3A4 [6] = experiment: CYP3A4 mRNA in cell lines HepG2, Hop92 and LS180; assay type: cell-based, human; settings: 24 h
human PXR [7] = target: T3, human PXR; experiment: Activation of human PXR in hPXR-HRE cells transfected with HCE1, HCE2 or vector

Sequence of carboxylesterase HCE2 (O00748 27-559): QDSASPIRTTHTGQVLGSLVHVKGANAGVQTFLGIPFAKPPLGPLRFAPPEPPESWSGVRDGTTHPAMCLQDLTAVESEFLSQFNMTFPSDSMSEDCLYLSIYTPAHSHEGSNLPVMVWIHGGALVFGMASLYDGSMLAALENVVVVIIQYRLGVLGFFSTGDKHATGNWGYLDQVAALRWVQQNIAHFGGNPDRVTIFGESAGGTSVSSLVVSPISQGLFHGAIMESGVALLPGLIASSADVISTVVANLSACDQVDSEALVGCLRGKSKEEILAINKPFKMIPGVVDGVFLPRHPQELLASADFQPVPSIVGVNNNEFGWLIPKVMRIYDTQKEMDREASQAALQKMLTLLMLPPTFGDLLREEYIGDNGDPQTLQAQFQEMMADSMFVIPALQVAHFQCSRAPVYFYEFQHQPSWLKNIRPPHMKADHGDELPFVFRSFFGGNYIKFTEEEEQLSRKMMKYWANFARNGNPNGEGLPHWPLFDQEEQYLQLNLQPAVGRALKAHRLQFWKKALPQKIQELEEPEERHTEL

SMILES	preference for hydrolysis by HCE2 over HCE1 (carboxylesterase HCE2)	activation of rat PXR (rat PXR)	induction of CYP3A4 mRNA (CYP3A4 [1])	hydrolysis by pooled human liver microsomes (rate group / extent, in words) [3]	extent of metabolism by CYP3A4 (CYP3A4 [4])	preference for hydrolysis by HCE1 over HCE2 (words) (carboxylesterase HCE1)	activation of human PXR (human PXR [5])	further results
Cc1c(COC(=O)[C@@H]2[C@H](/C=C(\Cl)C(F)(F)F)C2(C)C)cccc1-c1ccccc1 (racemic) [Bifenthrin]	HCE2 preferably hydrolyzed	efficaciously activated rat PXR	≥ 2.5 fold	–	–	–	–	–
C=CCC1=C(C)C(OC(=O)[C@@H]2[C@@H](C=C(C)C)C2(C)C)CC1=O (stereo partly drawn) [Bioallethrin]	–	2.0 fold	relatively weaker inducers; also recorded: least induction	rapidly hydrolyzed	greatest extent	HCE1 preferably hydrolyzed	activated PXR with less potency	variation of overall hydrolysis among individual samples [2]: ~ 2 fold; hydrolysis rate relative to bifenthrin ([3]; pooled human liver microsomes): 8 times
CC(C)=C[C@@H]1[C@@H](C(=O)OCc2coc(Cc3ccccc3)c2)C1(C)C [Bioresmethrin]	–	–	relatively weaker inducers; also recorded: least induction	highest extent	–	hydrolyzed overwhelmingly by HCE1	1.5 fold	hydrolysis by HCE1 relative to esfenvalerate (carboxylesterase HCE1; recombinant HCE1): 7 times; preference for hydrolysis by HCE1 over HCE2 (words) (carboxylesterase HCE1; listed as bioresmethrin): HCE1 preferably hydrolyzed; LD50 (rats or mice): 1244 mg/kg
CC(C)[C@H](C(=O)O[C@H](C#N)c1cccc(Oc2ccccc2)c1)c1ccc(Cl)cc1 [Esfenvalerate]	–	–	≥ 2.5 fold	low rate	–	HCE1 preferably hydrolyzed	–	activation of PXR variant S208F (human PXR variant S208F): no differences; activation of PXR variant L412I compared with wild-type PXR (human PXR variant L412I): less extent than the wild-type PXR; concentration dependence of CYP3A4 mRNA induction (CYP3A4 [6]; HepG2 cells, 0–10 µM): concentration-dependent manner; lowest concentration with significant induction of CYP3A4 mRNA (CYP3A4 [6]; HepG2 cells, 0–10 µM): 0.5 µM; induction of CYP3A4 mRNA in HepG2 (CYP3A4 [6]; HepG2 cells, 1 µM): significant induction; induction of CYP3A4 mRNA in Hop92 (CYP3A4 [6]; Hop92 cells, 1 µM): significant induction; induction of CYP3A4 mRNA in LS180 (CYP3A4 [6]; LS180 cells, 1 µM): significant induction; LD50 (rats or mice): 325 mg/kg
CC1(C)[C@H](C=C(Cl)Cl)[C@H]1C(=O)OCc1cccc(Oc2ccccc2)c1 [Per-1, trans-permethrin]	comparably hydrolyzed by both enzymes	–	–	high rate	–	–	–	hydrolysis by HCE2 faster than by HCE1 (carboxylesterase HCE2; recombinant enzymes): 15%
CC1(C)[C@H](C(=O)OCc2cccc(Oc3ccccc3)c2)[C@@H]1C=C(Cl)Cl [Per-2, cis-permethrin]	–	–	–	low rate	–	–	–	hydrolysis by HCE2 relative to HCE1 (carboxylesterase HCE2; recombinant enzymes): 7 times
CC1(C)C(C=C(Cl)Cl)C1C(=O)OCc1cccc(Oc2ccccc2)c1 (stereo not drawn) [Permethrin]	HCE2 preferably hydrolyzed	efficaciously activated rat PXR	–	–	–	–	relatively weak activators of human PXR	–
CC(C)=CC1C(C(=O)OCN2C(=O)C3=C(CCCC3)C2=O)C1(C)C (stereo not drawn) [Tetramethrin]	HCE2 preferably hydrolyzed; also recorded: slightly more active than HCE1	–	relatively weaker inducers; also recorded: minimal induction; also recorded: least induction; also recorded: weakest CYP3A4 inducer	–	greatest extent	–	–	hydrolysis rate relative to tau-fluvalinate ([3]; pooled human liver microsomes): 9 times; lowest concentration causing significant activation of PXR, HCE1 (human PXR [7]; HCE1 co-transfected cells, 0.5-10 µM): 5 µM; lowest concentration causing significant activation of PXR, HCE2 (human PXR [7]; HCE2-cotransfected cells, 0.5-10 µM): > 10 µM; lowest concentration causing significant activation of PXR, vector (human PXR [7]; cells cotransfected by the vector, 0.5-10 µM): 1 µM; effect of carboxylesterase cotransfection on PXR activation (human PXR [7]; hPXR-HRE cells transfected with HCE1 or HCE2 vs vector, 10 µM): markedly decreased; decrease in PXR activation, HCE1 versus HCE2 cotransfection (human PXR [7]; hPXR-HRE cells, 10 µM): decreased more PXR activation than HCE1; CYP3A4 protein (Western blotting) (CYP3A4 [1]): slight increase
CC(C)[C@@H](Nc1ccc(C(F)(F)F)cc1Cl)C(=O)OC(C#N)c1cccc(Oc2ccccc2)c1 (stereo partly drawn) [tau-Fluvalinate]	HCE2 preferably hydrolyzed	–	–	low rate	least extent	–	3.5 fold	–
